Data reported in ChEMBL document CHEMBL1201862, “PubChem BioAssay data set” (2004).
The source made the active and inactive calls. Cut-off read from the data, not from the text of the source: actives have a measured IC50 and inactives only a lower limit.

Target: Envelope glycoprotein gp160 (Human immunodeficiency virus 1, UniProt Q6QLK5)
Assay: cell-free HIV fusion peptide-binding blockers – biochemical, uHTS, fluorescence dequenching, […] (AID 1986)

Sequence of Envelope glycoprotein gp160 (Q6QLK5 whole entry, the tested form may be a part): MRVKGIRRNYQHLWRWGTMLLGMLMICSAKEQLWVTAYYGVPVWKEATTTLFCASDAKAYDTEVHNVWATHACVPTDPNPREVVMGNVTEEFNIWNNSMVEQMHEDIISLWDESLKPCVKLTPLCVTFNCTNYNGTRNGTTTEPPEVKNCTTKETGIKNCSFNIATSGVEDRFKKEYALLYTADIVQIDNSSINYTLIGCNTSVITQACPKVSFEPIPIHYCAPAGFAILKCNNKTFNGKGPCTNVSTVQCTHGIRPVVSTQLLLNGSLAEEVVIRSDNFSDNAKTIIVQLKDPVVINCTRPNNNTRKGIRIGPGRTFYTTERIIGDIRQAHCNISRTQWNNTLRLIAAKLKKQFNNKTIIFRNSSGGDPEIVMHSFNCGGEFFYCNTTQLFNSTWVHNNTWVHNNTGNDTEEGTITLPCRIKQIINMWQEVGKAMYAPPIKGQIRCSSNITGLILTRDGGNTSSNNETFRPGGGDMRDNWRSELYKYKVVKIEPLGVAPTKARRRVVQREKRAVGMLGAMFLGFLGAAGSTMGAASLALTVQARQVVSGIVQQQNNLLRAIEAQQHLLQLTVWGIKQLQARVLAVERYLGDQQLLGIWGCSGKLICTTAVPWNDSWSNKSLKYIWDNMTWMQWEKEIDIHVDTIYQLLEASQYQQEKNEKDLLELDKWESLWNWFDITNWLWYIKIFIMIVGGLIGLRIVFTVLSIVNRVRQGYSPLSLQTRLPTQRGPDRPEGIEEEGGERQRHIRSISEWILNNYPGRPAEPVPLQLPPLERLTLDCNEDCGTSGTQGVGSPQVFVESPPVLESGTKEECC

**Q.** O=S(=O)(Nc1nc2ccccc2nc1Nc1cccc(S(=O)(=O)N2CCCCC2)c1)c1ccccc1 was tested. Which IC50 did it give?
**A.** 13.3 µM (active)

**Q.** For COc1ccc(C(=O)/C=C/c2ccc(OCc3ccccc3)cc2)cc1CSCC(=O)O, which IC50 is on record?
**A.** 25.7 µM (active)

**Q.** For Cc1cc(/C=C2/C(=N)N3C(=NC2=O)SN=C3S(C)(=O)=O)c(C)n1-c1ccccc1, which IC50 is on record?
**A.** 19.1 µM (active)
